Test results as given in publication PMC3912015, “Synthetic Multivalent Antifungal Peptides Effective against Fungi” (PLoS ONE, 2014).
Bridge positions count the residues as written; N and C are the ends. Peptide text beside a SMILES is read from it. I, II: the chains in the order shown.

Assays:
[1] = system: C. albicans ATCC 10231; type: cell-based; conditions: Candida albicans, 6 h, 5.5 µM
Experimental: For all the experiments, unless otherwise stated, C. albicans ATCC 10231 strain was used. B4010 (1 mg/mL) was incubated with trypsin (enzyme:peptide ratio 1∶100) at 37°C. 20 µL aliquot of this mixture was withdrawn at various time intervals (0.5, 1, 2, 4 and 6 h) and mixed with 1 µL of trypsin inhibitor. The antifungal activity of the peptide was determined by adding this mixture to 180 µL of inoculum and monitoring the growth at OD600 for 24 h. Similar experiments performed in the presence of trypsin/trypsin inhibitor (without B4010) were used as a positive control. For assessing the antifungal activity in TF, the peptide was dissolved in freshly collected rabbit TF and incubated at 37°C for 6 h. After incubation, an equal volume of an overnight culture of C. albicans (∼10^6 CFU/mL) was mixed with peptides in tear fluid and incubated at 37°C for 24 h. The final concentrations of the peptide were at 4.4, 8.8 and 22 µM. A 100 µL aliquot of serial dilutions (10^2 or 10^3 times) of this mixture were inoculated on a SD agar plate and then incubated for 48 h at 37°C. […]
To study the effects of metal ions, the broth solution containing C. albicans (OD600 = 0.4–0.6) was adjusted to appropriate final concentrations of metal ions, incubated with 5.5 µM of B4010 for 6 h and the cell viability was determined as before after 48 h. […]

[2] = type: biochemical
Experimental: Small unilamellar vesicles (SUVs) were prepared using PC/PE/PI or PS lipids (5∶2.5∶2.5) containing 15 wt% ergosterol or PC/Cholesterol (10∶1). For the preparation of PC/PE/PI or PS/Erg SUV, the lipids were dissolved in chloroform/methanol (2∶1, v/v) in a glass tube. Ergosterol was dissolved in same solvent and added to lipid mixture to make final ergosterol content of 15 wt%. The Lipid-ergosterol mixture was dried using nitrogen gas to form lipid layer. The film was hydrated in a buffer containing 20 mM PBS (pH 7), vortexed and sonicated. Each cycle of sonication (5 sec, 40°C) was followed by freezing in liquid nitrogen and thawing on a water bath kept at 37°C. The procedure was repeated 5–6 times until an optically clear dispersion appeared. The SUV was divided into two parts. To the first part 50 mM calcein was added and incubated for 1 h. The excess calcein was removed by injecting 100 µL of the calcien-loaded SUV’s into a Ultrahydrogel™ 250 (7.8 mm × 300 mm) column equilibrated with 20 mM PBS (pH 7.0) and eluted isochratically at a flow rate of 1 mL/min for 1.5 column volumes. The calcein-loaded liposomes were mixed with calcein-free liposome (1∶1) to adjust final liposome concentration. Peptide concentration was added to obtain 1∶30 or 1∶15 peptide:liposome ratio. Changes in the fluorescence signal after addition of peptide or Triton X-100 was measured on a PTI spectrofluorometer, using an excitation wavelength of 480 nm and emission wavelength of 512 nm. The Percentage calcein released at each time point was calculated using the equation, [drawing 1]
Where A0 is the observed fluorescence intensity upon addition of peptides, Amin is the average intensity at the baseline (before peptide addition), Amax is the average intensity at the saturation phase after adding 1% Triton X-100. Similar protocol was followed for the preparation of PC/Cholesterol SUVs.

CC(C)[C@H](NC(=O)[C@H](CCCCN)NC(=O)[C@H](CCCNC(=N)N)NC(=O)CNC(=O)[C@@H](N)CCCNC(=N)N)C(=O)N[C@H](C(=O)N[C@@H](CCCNC(=N)N)C(=O)N[C@@H](CCCNC(=N)N)C(=O)NCCCC[C@H](NC(=O)[C@H](CCCNC(=N)N)NC(=O)[C@H](CCCNC(=N)N)NC(=O)[C@@H](NC(=O)[C@@H](NC(=O)[C@H](CCCCN)NC(=O)[C@H](CCCNC(=N)N)NC(=O)CNC(=O)[C@@H](N)CCCNC(=N)N)C(C)C)C(C)C)C(=O)NCCCC[C@H](NC(=O)[C@H](CCCCNC(=O)[C@H](CCCNC(=N)N)NC(=O)[C@H](CCCNC(=N)N)NC(=O)[C@@H](NC(=O)[C@@H](NC(=O)[C@H](CCCCN)NC(=O)[C@H](CCCNC(=N)N)NC(=O)CNC(=O)[C@@H](N)CCCNC(=N)N)C(C)C)C(C)C)NC(=O)[C@H](CCCNC(=N)N)NC(=O)[C@H](CCCNC(=N)N)NC(=O)[C@@H](NC(=O)[C@@H](NC(=O)[C@H](CCCCN)NC(=O)[C@H](CCCNC(=N)N)NC(=O)CNC(=O)[C@@H](N)CCCNC(=N)N)C(C)C)C(C)C)C(=O)N[C@@H](CCCCN)C(=O)O)C(C)C [B4010] (I: H-RGRKVVRRKKK-OH / II: H-RGRKVVRRK / III: H-RGRKVVRR / IV: H-RGRKVVRR; amide I:9-IV:C, I:10-II:C, II:9-III:C; N-terminus and C-terminus assumed)
viable cells [1]: 40% | % Calcein released from PC/PE/PS/Erg [2]: ~68% | dye (calcein) release [2]: ~46%
